Entries after “also recorded” stand apart in the source; their conditions may differ.
Key:
[1] = system: SKOV-3 cells; assay: Targeted LC-MS analysis of lipid levels in inhibitor-treated cells; format: cell-based, human
Method: (§1) The following LC-MS conditions were used for analysis of cancer cell metabolomes. Cell pellets were harvested by scraping, isolated by centrifugation at 1,400×g, and dounce-homogenized in 4 mL of a 2:1:1 mixture of chloroform:methanol:Tris buffer (50 mM Tris*HCl, pH 8.0). Samples that were analyzed by targeted LC-MS were homogenized in the presence of the following synthetic standards: C15:0 MAG (50 pmol), C17:0 LPA (50 pmol), and 13C-C16:0 MAGE (25 pmol). Organic and aqueous layers were separated by centrifugation at 1,260×g for 5 min. The organic layer was then removed, dried under a stream of N2, and re-solubilized in 100 μL of chloroform, of which 30 μL was analyzed by LC-MS. Extraction of LPA was performed by acidifying the remaining aqueous layer to a final concentration of 5% formic acid, followed by the addition of 2 mL of chloroform. The mixture was vortexed, the organic layer removed, concentrated to dryness, and dissolved in 100 μL of chloroform, of which 30 μL was analyzed by LC-MS.
(§2) LC-MS analysis was performed using an Agilent 1100 LC-MSD SL instrument. […] Mobile phase A was composed of a 95:5 ratio of water:methanol and mobile phase B consisted of 2-propanol, methanol, and water in a 60:35:5 ratio. Solvent modifiers such as 0.1% formic acid and 0.1% ammonium hydroxide were used to assist ion formation as well as improve the LC resolution in both positive and negative ionization modes respectively. The flow rate for each run started at 0.1 mL/min for 5 min, to alleviate backpressure associated with injecting chloroform. The gradient started at 0% B and increased linearly to 100% B over the course of 40 min with a flow rate of 0.4 mL/min, followed by an isocratic gradient of 100% B for 7 min before equilibrating for 8 min at 0% B with a flow rate of 0.5 mL/min.
(§3) MS analysis was performed with an electrospray ionization (ESI) source. The capillary voltage was set to 3.0 kV and the fragmentor voltage to 100V. The drying gas temperature was 350° C., the drying gas flow rate was 10 L/min, and the nebulizer pressure was 35 psi. Untargeted data was collected using a mass range of 200-1000 Da and exported as common data format (.CDF) files for computational analysis. Differentially expressed metabolites between sample pairs were identified using the XCMS analyte profiling software (http://metlin/download) that aligns mass peaks from two LC-MS traces and quantifies the relative intensities of global metabolites (5). Significant inhibitor-sensitive peak changes were confirmed by manual quantification using the area under the peak normalized to total ion current. Targeted LC-MS measurements were made using selected ion monitoring (SIM). Peaks were quantified by measuring the area under the peak and normalized to an internal standard (C15:0 MAG) or endogenous lipid (palmitic acid). Absolute MAGE levels were estimated by comparison to a 13C-MAGE standard.
(§4) Human ovarian cancer cell lines were obtained form the National Cancer Institute's Developmental Therapeutics Program. The melanoma lines C8161 and MUM-2B were obtained form Mary Hendrix. Cells were maintained in RPMI medium 1640 with 10% (v/v) fetal calf serum at 37° C. in a humidified atmosphere of 5% CO2/95% air. At approximately 80% confluency, cells were trypsinized, counted with the aid of a hemocytometer, and 2.5×10^6 cells were plated in 6 cm dishes. 20 h after plating cells were washed twice with PBS and supplemented with serum free RPMI containing 0.5% BSA (Sigma)(BSA-RPMI) with AS115 (0.01-10 μM) or vehicle (DMSO) at 0.1%. After incubation for 4 h the cells were harvested and analyzed by ABPP or LC-MS.
By extension, the m/z 345 and 347 metabolites were interpreted to represent the C18:1 and C18:0 MAGEs, respectively. […] MAGE levels were measured by targeted LC-MS analysis of SKOV-3 cells treated with AS115 (5 μM) or DMSO for 4 h using a 13C-C16:0 MAGE internal standard. Values are represented as pmol/10^6 cells. […]

[2] = system: other serine hydrolase activities; assay: In situ competitive ABPP with FP-rhodamine, other serine hydrolases; format: cell-based, human; conditions: SKOV-3 cells treated in culture with AS115 (0-10 μM), 4 h
Method: as §4
[…]. Cells were washed twice and scraped in ice-cold PBS. […] Proteomes protein concentrations were determined by a protein assay kit (Bio-Rad), adjusted to a final concentration of 1 mg/mL in Tris buffer, and treated with 2 μM FP-rhodamine for 30 min at room temperature (50 μL total reaction volume). […] Reactions were quenched with one volume of standard 2×SDS/PAGE loading buffer (reducing), separated by SDS/PAGE (10% acrylamide) and visualized in-gel with a Hitachi FMBio Ile flatbed fluorescence scanner (MiraiBio). Integrated band intensities were calculated for the labeled proteins and averaged from 3 independent cell samples to determine the level of each enzyme activity.

[3] = system: SKOV-3 cells; assay: Untargeted LC-MS comparative metabolomics of inhibitor-treated cells; format: cell-based, human; conditions: 4 h
Method: as §1, §2, §3, §4
These experiments were performed using the method of untargeted liquid chromatography-mass spectrometry (LC-MS) for comparative metabolomics. Cells were treated with AS115 (10 μM) or DMSO for 4 h and analyzed by untargeted LC-MS methods. […] Relative mass signals are shown in Table 1, represented as the average values and standard error for three independent experiments.

[4] = system: SKOV-3 cells; assay: Metabolic labeling of SKOV-3 cells with 13C-2-acetyl MAGE; format: cell-based, human; conditions: 10 μM 13C-2-acetyl MAGE, 1 h
Method: Cells were cultured and maintained as described above. Cells used for 13C-2-acetyl MAGE experiments were incubated in BSA-RPMI containing inhibitor or vehicle for […]. BSA-RPMI medium was then removed, supplemented with 10 μM 13C-2-acetyl MAGE or DMSO, and re-applied to cells. After incubation for 1 h the cells were harvested and metabolomes were analyzed by LC-MS. 13C-MAGE experiments were conducted by addition of 13C-MAGE or DMSO containing BSA-RPMI directly after washing with PBS. Cells were then incubated for 4 h, harvested, and analyzed by LC-MS.

[5] = system: background 2-thioacetyl MAGE hydrolyzing activity in membrane proteomes; assay: Background 2-thioacetyl MAGE hydrolyzing activity in membrane proteomes; format: biochemical; conditions: FIG. 14
Method: KIAA1363-transfected cell lines were used for substrate-based enzyme activity assays. Membrane proteomes were adjusted to 0.5 mg/ml in 50 mM tris pH 7.4 buffer containing 5 mM CHAPS detergent. Immediately prior to the assay, 5,5′-dithiobis-(2-nitrobenzoic acid) (DTNB, Sigma) was added at 0.5 mM to the membrane proteome to prepare the Assay Buffer. For analysis of inhibitors, 1 ul of a 50× inhibitor solution in DMSO was added to 48 ul of Assay Buffer and preincubated for 20 min at RT. The substrate 2-thioacetyl MAGE (Cayman Chemical) was prepared by evaporating off the original solvent under nitrogen and redissolving the residue in DMSO. 1 ul of 5 mM 2-thioacetyl MAGE stock is added to each assay well to begin the assay. Absorbance is determined at A405 nm.
The background 2-thioacetyl MAGE hydrolyzing activity in membrane proteomes that is not inhibited by AS-115 is inhibited by the broad serine protease inhibitor PMSF (FIG. 14). The IC50 of AS-115 was measured using the 2-thioacetyl MAGE substrate-based assay with Flag-KIAA1363/293T cell membrane proteome (FIG. 15).

[6] = system: MUM-2B melanoma cells; assay: LC-MS MAGE lipid levels in inhibitor-treated melanoma cells; format: cell-based, human; conditions: compared to DMSO controls
Method: as §1, §2
(§5) MS analysis was performed with an electrospray ionization (ESI) source. […] Differentially expressed metabolites between sample pairs were identified using the XCMS analyte profiling software (http://metlin/download) that aligns mass peaks from two LC-MS traces and quantifies the relative intensities of global metabolites (5). Significant inhibitor-sensitive peak changes were confirmed by manual quantification using the area under the peak normalized to total ion current. […] Peaks were quantified by measuring the area under the peak and normalized to an internal standard (C15:0 MAG) or endogenous lipid (palmitic acid). […]
(§6) Human ovarian cancer cell lines were obtained form the National Cancer Institute's Developmental Therapeutics Program. […] At approximately 80% confluency, cells were trypsinized, counted with the aid of a hemocytometer, and 2.5×10^6 cells were plated in 6 cm dishes. […] After incubation for 4 h the cells were harvested and analyzed by ABPP or LC-MS. […]

[7] = system: C8161 melanoma cells; assay: as above; format: cell-based, human; conditions: compared to DMSO controls
Method: as §1, §2, §5, §6

CCCCOCC1CCCCC1COCCNC(=O)Oc1ccccc1F (stereo not drawn) [AS115]
Basal levels of 2-acetyl MAGE [1]: not significantly altered
Basal levels of PAF [1]: not significantly altered
Absolute level of MAGE lipid C18:1 ([1]; 5 μM, 4 h, 13C-C16:0 MAGE internal standard, DMSO 12.1 ± 0.4): 4.0 ± 0.7 pmol/10^6 cells
Absolute level of MAGE lipid C18:0 ([1]; 5 μM, 4 h, 13C-C16:0 MAGE internal standard, DMSO 39.5 ± 3.7): 7.6 ± 2.3 pmol/10^6 cells
Absolute level of MAGE lipid C16:0 ([1]; 5 μM, 4 h, 13C-C16:0 MAGE internal standard, DMSO 94.7 ± 6.6): 19.3 ± 2.2 pmol/10^6 cells
Levels of MAGE lipids ([1]; compared to DMSO controls): significantly lowered; also recorded: reduce
Levels of alkyl-LPA ([1]; vs vehicle, FIG. 7B): reduce
Levels of alkyl-LPC ([1]; vs vehicle, FIG. 7B): reduce
IC50 [2]: > 10 µM
Levels of lipophilic metabolites (m/z 317, 345, and 347) ([3]; 10 μM): substantial reduction
Levels of typical lipid species (free fatty acids, phospholipids, ceramides, monoacylglycerides) ([3]; 10 μM): none of which were significantly altered
Relative mass signal DMSO/AS115, Ceramide C16 ([3]; AS115 10 μM or DMSO): 0.53
Relative mass signal DMSO/AS115, Ceramide C18 ([3]; AS115 10 μM or DMSO): 0.73
Relative mass signal DMSO/AS115, FFA C14 ([3]; AS115 10 μM or DMSO): 0.69
Relative mass signal DMSO/AS115, FFA C16 ([3]; AS115 10 μM or DMSO): 0.69
Relative mass signal DMSO/AS115, FFA C18 ([3]; AS115 10 μM or DMSO): 0.76
Relative mass signal DMSO/AS115, FFA C18:1 ([3]; AS115 10 μM or DMSO): 0.56
Relative mass signal DMSO/AS115, FFA C20:4 ([3]; AS115 10 μM or DMSO): 1.04
Relative mass signal DMSO/AS115, MAG C16 ([3]; AS115 10 μM or DMSO): 1.00
Relative mass signal DMSO/AS115, MAG C18:1 ([3]; AS115 10 μM or DMSO): 0.83
Relative mass signal DMSO/AS115, PA C32 ([3]; AS115 10 μM or DMSO): 1.01
Relative mass signal DMSO/AS115, PA C34 ([3]; AS115 10 μM or DMSO): 1.41
Relative mass signal DMSO/AS115, PA C34:1 ([3]; AS115 10 μM or DMSO): 0.95
Relative mass signal DMSO/AS115, PA C36:1 ([3]; AS115 10 μM or DMSO): 0.99
Relative mass signal DMSO/AS115, PA C36:2 ([3]; AS115 10 μM or DMSO): 0.74
Relative mass signal DMSO/AS115, PC C32 ([3]; AS115 10 μM or DMSO): 1.07
Relative mass signal DMSO/AS115, PC C34 ([3]; AS115 10 μM or DMSO): 0.96
Relative mass signal DMSO/AS115, PC C34:1 ([3]; AS115 10 μM or DMSO): 1.01
Relative mass signal DMSO/AS115, PC C36:1 ([3]; AS115 10 μM or DMSO): 0.68
Relative mass signal DMSO/AS115, PC C36:2 ([3]; AS115 10 μM or DMSO): 1.07
Relative mass signal DMSO/AS115, PE C32 ([3]; AS115 10 μM or DMSO): 1.13
Relative mass signal DMSO/AS115, PE C34 ([3]; AS115 10 μM or DMSO): 0.94
Relative mass signal DMSO/AS115, PE C34:1 ([3]; AS115 10 μM or DMSO): 0.84
Relative mass signal DMSO/AS115, PE C36:1 ([3]; AS115 10 μM or DMSO): 0.94
Relative mass signal DMSO/AS115, PE C36:2 ([3]; AS115 10 μM or DMSO): 0.61
Relative mass signal DMSO/AS115, PG C32 ([3]; AS115 10 μM or DMSO): 0.78
Relative mass signal DMSO/AS115, PG C34 ([3]; AS115 10 μM or DMSO): 0.95
Relative mass signal DMSO/AS115, PG C34:1 ([3]; AS115 10 μM or DMSO): 0.98
Relative mass signal DMSO/AS115, PG C36:1 ([3]; AS115 10 μM or DMSO): 0.89
Relative mass signal DMSO/AS115, PG C36:2 ([3]; AS115 10 μM or DMSO): 1.04
Relative mass signal DMSO/AS115, PS C32 ([3]; AS115 10 μM or DMSO): 1.06
Relative mass signal DMSO/AS115, PS C34 ([3]; AS115 10 μM or DMSO): 1.02
Relative mass signal DMSO/AS115, PS C34:1 ([3]; AS115 10 μM or DMSO): 0.96
Relative mass signal DMSO/AS115, PS C36:1 ([3]; AS115 10 μM or DMSO): 0.99
Relative mass signal DMSO/AS115, PS C36:2 ([3]; AS115 10 μM or DMSO): 1.13
Relative mass signal DMSO/AS115, MAGE C16 ([3]; AS115 10 μM or DMSO, p<0.001): 5.29
Relative mass signal DMSO/AS115, MAGE C18 ([3]; AS115 10 μM or DMSO, p<0.001): 5.86
Relative mass signal DMSO/AS115, MAGE C18:1 ([3]; AS115 10 μM or DMSO, p<0.001): 4.42
Levels of 2-acetyl MAGE as judged by metabolic labeling [4]: significantly stabilized
PAF level in metabolic labeling experiments [4]: accumulation
Background 2-thioacetyl MAGE hydrolyzing activity [5]: not inhibited
Levels of MAGE lipids [6]: significantly reduced
Levels of MAGE lipids [7]: significantly reduced

O=S(=O)(F)Cc1ccccc1 [PMSF, reference compound]
Background 2-thioacetyl MAGE hydrolyzing activity [5]: inhibited
